Reference: patent US10774082B2, “Quinazoline compound” (Astellas Pharma Inc., priority 2017, dated 2020)
Like-named read-outs stand apart in the source and are kept apart here.

Legend:
[1] = system: ERK phosphorylation (Thr 202/Tyr 204) in NCI-H1373 cells; test: ERK phosphorylation inhibitory action in NCI-H1373 (Cell ELISA); type: cell-based, Human; conditions: Homo sapiens, NCI-H1373, 2 h, read-out: IC50 (ERK phosphorylation inhibition)
Protocol: Evaluation of ERK Phosphorylation Inhibitory Action with Respect to Human KRAS G12C Mutation Positive Non-Small Cell Lung Cancer Strain NCI-H1373
The ERK phosphorylation inhibitory action by the test compound was evaluated by measuring phosphorylation of 202th threonine (Thr 202) and 204th tyrosine (Tyr 204) of ERK on the downstream of the KRAS signal by Cell ELISA.
NCI-H1373 cells (ATCC, CRL-5866) were seeded in 384 well plates (Greiner bio-one) at 36 μL/well each so as to be 2×10^4 cell per well. Cell culture was performed under the conditions of temperature of 37° C. in the presence of 5% CO2 by using RPMI 1640 medium (Sigma-Aldrich Co. LLC) containing 10% fetal bovine serum (GE Life Sciences).
The next day, the test compounds (six points in a range of final concentration 1,000 nM to 0.3 nM), final concentration 1 μM of Trametinib (GlaxoSmithKline Inc.; MEK inhibitor) as a positive control, and DMSO which is a solvent of the test compound as a negative control were diluted 100-fold with fresh medium, 4 μL each was added to each well, and then cultured for 2 hours. Immediately after culturing, 30 μL of 30% glyoxal solution (Wako: 40% glyoxal diluted with Phosphate Buffered Saline (PBS; Wako)) was added to each well, and the cells were left to stand at room temperature for one hour to be fixed. Thereafter, the supernatant was removed by centrifuging the plate (110×g for 7 seconds, unless otherwise stated below under the same conditions), and 20 μL of PBS containing 0.1% Triton X-100 (Amersham Biosciences Corp.) was added to each well. After being left to stand at room temperature for 10 minutes, the supernatant was removed by centrifugation, and the same operation was repeated. Next, 20 μL of PBS containing 0.5% SDS (Invitrogen) was added to each well, and the mixture was left to stand at room temperature for 30 minutes, and then centrifuged to remove the supernatant. Subsequently, 20 μL of a blocking solution (ODYSSEY Blocking Buffer; LI-COR Biosciences) was added to each well, and left to stand at room temperature for one hour. The supernatant was removed by centrifugation, and 10 μL of a blocking solution prepared by diluting ERK (Thr 202/Tyr 204) of a phosphorylation antibody (Cell Signaling Technology, Inc.) as a primary antibody to be ½, 500 amount with respect to a stock solution was added to each well and was left to stand at 4° C. for overnight.
The next day, a reaction liquid is removed by centrifuging the plate, 20 μL of 0.05% Tween-20-containing PBS (Thermo Scientific; 20×PBS Tween-20 diluted 20-fold with ion exchanged water) was added to each well, and each well was washed by removing the supernatant by centrifugation. Washing was performed three times in total. After washing, 10 μL of a blocking solution prepared by diluting IRDye 800CW Goat anti-Rabbit IgG (LI-COR Biosciences) as a secondary antibody to be 1/1,000 amount with respect to a stock solution was added to each well and was left to stand at room temperature for one hour. The reaction liquid was removed by centrifuging the plate, and each well was washed three times with 0.05% Tween-20-containing PBS in the same manner as after primary antibody reaction. The centrifugation after the third wash was 171×g for 17 seconds. After removal of the cleaning solution, the plate was left to air dry at room temperature for three hours or more and the fluorescent signal at 800 nm was measured by Aerius (LI-COR Biosciences).
When a signal value at the time of adding DMSO was set as 0% inhibition, and a signal value at the time of adding 1 μM of Trametinib was set as 100% inhibition, a value of 50% inhibition (IC50) was calculated through Sigmoid-Emax model nonlinear regression analysis.

[2] = system: NCI-H1373 cells; test: Anchorage-independent cell proliferation inhibitory action, NCI-H1373 spheroid three-dimensional culture; type: cell-based, Human; conditions: Homo sapiens, NCI-H1373, 144 h, read-out: IC50 (anchorage-independent cell proliferation inhibition)
Protocol: Evaluation of Anchorage-Independent Cell Proliferation Inhibitory Action with Respect to Human KRAS G12C Mutation Positive Non-Small Cell Lung Cancer Strain NCI-H1373
An anchorage-independent cell proliferation inhibitory action by the test compound was evaluated by a spheroid three-dimensional culture.
NCI-H1373 cells were seeded in cell low adsorption U bottom 384 well plates (Prime Surface: Sumitomo Bakelite Co., Ltd.) at 36 μL/well each so as to be 5×10^2 cell per well. The cell culture was performed under the same conditions as Test example 2.
The next day, the test compounds (six points in a range of final concentration 1,000 nM to 0.3 nM) and DMSO which is a solvent of the test compound as a negative control were diluted 100-fold with fresh medium, 4 μL each was added to each well. After culturing at 37° C. in the presence of 5% CO2 for six days, 20 μL of CellTiter Glo or to CellTiter Glo 2.0 (Promega Corporation) was added to each well. After stirring for one hour at room temperature using a plate mixer (FINEPCR), an emission signal was measured with ARVO X3 (PerkinElmer Co., Ltd.).
When a signal value in a DMSO treatment was set as 0% inhibition, and a signal value in cell-free medium only was set as 100% inhibition, a value of 50% inhibition (IC50) was calculated through Sigmoid-Emax model nonlinear regression analysis.

[3] = target: T1, KRAS G12C/SOS/c-Raf complex (Homo sapiens, UniProt P01116, G12C); test: KRAS G12C/SOS/c-Raf complex formation inhibitory action (TR-FRET); type: biochemical; conditions: one hour at room temperature, read-out: IC50 (KRAS G12C/SOS/c-Raf complex formation inhibition)
T1 construct: Biotinylated AviTag-KRAS G12C (amino acid region 1-185, GDP)
T1 sequence (P01116 1-185 isoform P01116-2 G12C, one chain of several): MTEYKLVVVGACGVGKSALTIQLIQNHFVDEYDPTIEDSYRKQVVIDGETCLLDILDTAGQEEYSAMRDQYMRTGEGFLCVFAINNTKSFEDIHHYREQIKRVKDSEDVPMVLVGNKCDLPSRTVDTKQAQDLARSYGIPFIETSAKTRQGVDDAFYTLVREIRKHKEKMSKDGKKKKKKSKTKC
Protocol: Evaluation of KRAS G12C/SOS/c-Raf Complex Formation Inhibitory Action
Human Recombinant KRAS G12C, SOS, and c-Raf protein were used, and with respect to the complex formation of these proteins, an inhibitory action of the test compound was examined through a time-resolved fluorescence resonance energy transfer (TR-FRET) method.
Biotinylated AviTag-KRAS G12C (amino acid region 1-185, GDP) (2.5 μL; 400 nM) dissolved in assay buffer (50 mM HEPES, 150 mM NaCl, 5 mM MgCl2, 0.05% Tween 20, pH 7.4) and test compound were added in a volume of 2.5 μL from 4,000 nM to 4 nM were added to 384 well plate (Corning Inc). Son of Sevenless (SOS) (amino acid region 564-1049, 2.5 μL; 1.3 μM) and c-Raf (amino acid region 51-131) GST containing GTP (Sigma-Aldrich Co. LLC) (2.5 μL; 130 nM and 4 μM of each) were added to the above mixture, and the resultant was left to stand for one hour at room temperature. Thereafter, a mixed solution (10 μL) of LANCE Ulight-anti-GST (120 nM, PerkinElmer. Co., Ltd) and LANCE Eu-W1024 labeled Streptoavidin (100 ng/mL, PerkinElmer. Co., Ltd) was added, and a fluorescence intensity on the condition of wavelength of 620 nm and 665 nm was measured by using EnVision 2103 Multilabel Reader (PerkinElmer Co., Ltd.) under the condition of excitation wavelength of 337 nm. […] In Tables, Ex represents Example numbers described later. In addition, in Tables, Compound C represents a test compound of Example I-59 disclosed in Pamphlet of International Publication No. WO 2016/164675, and the structures of Reference Example 1 and Reference Example 2 are indicated in Table 168 described below (the same shall apply hereinafter).

[4] = NCI-H1373 cells, cultured for 2 hours, 100% = 1 μM Trametinib
[5] = NCI-H1373 spheroid, six days, CellTiter Glo

C=CC(=O)N1CC2(CCN(c3nc(OC4CCS(=O)(=O)CC4)nc4c(OCC(F)(F)F)c(-c5c(C)ccc6[nH]ncc56)c(C=C)cc34)CC2)C1 [Example 75]
IC50 [1, 4]: 15 nM
IC50 [2, 5]: 43 nM
IC50 [3]: 51 nM

C=CC(=O)N1CC2(CCN(c3nc(OC4CCN(CC)CC4)nc4c(OC5CCC5)c(-c5c(C)ccc6[nH]ncc56)c(C=C)cc34)CC2)C1 [Example 20]
IC50 [1, 4]: 6.5 nM
IC50 [2, 5]: 11 nM
IC50 [3]: 32 nM

C=CC(=O)N1CC2(CCN(c3nc(OC4CCN(C(C)C)CC4)nc4c(OCC)c(-c5c(C)ccc6[nH]ncc56)c(C=C)cc34)CC2)C1 [Example 12]
IC50 [1]: 6.7 nM
IC50 [2]: 11 nM
IC50 [3]: 23 nM

C=CC(=O)N1CC2(CCN(c3nc(N4CCC(N(C)C)CC4)nc4c(OCC(F)(F)F)c(-c5c(C)ccc6[nH]ncc56)c(C=C)cc34)CC2)C1 [Example 42]
IC50 [1, 4]: 4.4 nM
IC50 [2, 5]: 13 nM
IC50 [3]: 44 nM

C=CC(=O)N1CC2(CCN(c3nc(OC4CCN(CC)CC4)nc4c(OCC(F)F)c(-c5c(C)ccc6[nH]ncc56)c(C5CC5)cc34)CC2)C1 [Example 22]
IC50 [1, 4]: 4.6 nM
IC50 [2, 5]: 15 nM
IC50 [3]: 39 nM

C=CC(=O)N1CC2(CCN(c3nc(OC4CCN(CC)CC4)nc4c(OCC)c(-c5c(C)ccc6[nH]ncc56)c(C5CC5)cc34)CC2)C1 [Example 18]
IC50 [1, 4]: 5.9 nM
IC50 [2, 5]: 7.3 nM
IC50 [3]: 46 nM

C=CC(=O)N1CC2(CCN(c3nc(OC4CCN(CCCOC)CC4)nc4c(OCC(F)(F)F)c(-c5c(C)ccc6[nH]ncc56)c(C5CC5)cc34)CC2)C1 [Ex 38]
IC50 [3]: 15 nM

C=CC(=O)N1CC2(CCN(c3nc(OC4CCN(CCOC)CC4)nc4c(OCC(F)(F)F)c(-c5c(C)cc(F)c6[nH]ncc56)c(C=C)cc34)CC2)C1 [Example 78]
IC50 [1, 4]: 16 nM
IC50 [2, 5]: 24 nM
IC50 [3]: 47 nM

C=CC(=O)N1CC2(CCN(c3nc(OC4CCN(CCN5CCOCC5)CC4)nc4c(OCC(F)(F)F)c(-c5c(C)ccc6[nH]ncc56)c(C5CC5)cc34)CC2)C1 [Example 45]
IC50 [1]: 5.2 nM
IC50 [2]: 7.3 nM
IC50 [3]: 38 nM

C=CC(=O)N1CC2(CCN(c3nc(OC4CCN(CCOC)CC4)nc4c(OCC(F)(F)F)c(-c5c(C)ccc6[nH]ncc56)c(C=C)cc34)CC2)C1 [Ex 36]
IC50 [3]: 21 nM

C=CC(=O)N1CC2(CCN(c3nc(OC4CCN(CCOC)CC4)nc4c(OCC(F)(F)C(F)(F)F)c(-c5c(C)ccc6[nH]ncc56)c(C=C)cc34)CC2)C1 [Example 79]
IC50 [1, 4]: 16 nM
IC50 [2, 5]: 43 nM
IC50 [3]: 57 nM

C=CC(=O)N1CC2(CCN(c3nc(N4CCN(C)C(CC)C4)nc4c(OCC(F)(F)F)c(-c5c(C)ccc6[nH]ncc56)c(C=C)cc34)CC2)C1 (centres unmarked) [Example 89]
IC50 [1, 4]: 19 nM
IC50 [2, 5]: 40 nM
IC50 [3]: 53 nM

C=CC(=O)N1CC2(CCN(c3nc(OC4CCN(CC5CCOCC5)CC4)nc4c(OCC(F)(F)F)c(-c5c(C)ccc6[nH]ncc56)c(C=C)cc34)CC2)C1 [Example 44]
IC50 [1]: 5.1 nM
IC50 [2]: 7.6 nM
IC50 [3]: 41 nM

C=CC(=O)N1CC2(CCN(c3nc(CC4CCN(CCOC)CC4)nc4c(OCC(F)(F)F)c(-c5c(C)ccc6[nH]ncc56)c(C=C)cc34)CC2)C1 [Example 91]
IC50 [1, 4]: 22 nM
IC50 [2, 5]: 39 nM
IC50 [3]: 42 nM

C=CC(=O)N1CC2(CCN(c3nc(SC4CCN(C)CC4)nc4c(OCC(F)(F)F)c(-c5c(C)ccc6[nH]ncc56)c(C=C)cc34)CC2)C1 [Ex 51]
IC50 [1, 4]: 8.9 nM
IC50 [2, 5]: 24 nM
IC50 [3]: 59 nM

C=CC(=O)N1CC2(CCN(c3nc(OC[C@@H]4CCCN4C)nc4c(OC)c(-c5c(C)ccc6[nH]ncc56)c(C=C)cc34)CC2)C1 [Reference example 2, reference compound]
IC50 [1, 4]: 17 nM
IC50 [2, 5]: 22 nM
IC50 [3]: 35 nM

C=CC(=O)N1CC2(CCN(c3nc(OC4CCN(CC)CC4)nc4c(OCC(F)F)c(-c5c(C)ccc6[nH]ncc56)c(C=C)cc34)CC2)C1 [Example 10]
IC50 [1, 4]: 5.7 nM
IC50 [2, 5]: 10 nM
IC50 [3]: 34 nM

C=CC(=O)N1CC2(CCN(c3nc(OC4CCN(C(CF)CF)CC4)nc4c(OCC(F)(F)F)c(-c5c(C)ccc6[nH]ncc56)c(C=C)cc34)CC2)C1 [Example 55]
IC50 [1, 4]: 7.4 nM
IC50 [2, 5]: 43 nM
IC50 [3]: 83 nM

C=CC(=O)N1CC2(CCN(c3nc(OC4CCN(C(=O)OC)CC4)nc4c(OCC(F)(F)F)c(-c5c(C)ccc6[nH]ncc56)c(C=C)cc34)CC2)C1 [Example 88]
IC50 [1, 4]: 19 nM
IC50 [2, 5]: 90 nM
IC50 [3]: 148 nM

C=CC(=O)N1CC2(CCN(c3nc(OC4CCN(CC)CC4)nc4c(OC5CCC5)c(-c5c(C)ccc6[nH]ncc56)c(C5CC5)cc34)CC2)C1 [Example 19]
IC50 [1, 4]: 4.5 nM
IC50 [2, 5]: 15 nM
IC50 [3]: 48 nM

C=CC(=O)N1CC2(CCN(c3nc(O[C@H]4CC[C@@H](N(C)C)CC4)nc4c(OCC(F)(F)F)c(-c5c(C)ccc6[nH]ncc56)c(C=C)cc34)CC2)C1 [Example 64]
IC50 [1, 4]: 9.1 nM
IC50 [2, 5]: 15 nM
IC50 [3]: 32 nM
